Assay results: patent publication US20040248887A1, “Inhibitors of cathepsin S” (IRM LLC, priority 2003, published 2004)
Like-named read-outs stand apart in the source and are kept apart here.

Columns and labels:
Assay type in all cases: biochemical
[1] = molecular target: Cathepsin B (Homo sapiens, UniProt P07858); assay: Cathepsin B inhibition, fluorogenic peptide substrate kinetic assay; settings: Table III; Cathepsin B inhibition constant, pH5.5; read-out: Ki Cat. B
Description: The optimal substrate for cathepsin B, acetyl-histidine-proline-valine-lysine-amino carbamoyl coumarin, was identified from screening a combinatorial library of fluorogenic peptide substrates (Harris, J. L., B. J. Backes, et al., Proc Natl Acad Sci USA 2000, 97(14), 7754-9). Kinetic measurements are performed in a total reaction volume of 30 μl in 384-well microtiter plates. Cathepsin B, at a final concentration of 1.5 nM (active site), is incubated with the compounds at twelve varying concentrations in a buffer containing 100 mM NaAc (pH5.5), 1 mM EDTA, 100 mM NaCl, 0.01% Brij-35 for 20 minutes at room temperature. Control reactions in the absence of inhibitor are performed in replicates of 24. The reactions are initiated by adding the substrate, acetyl-histidine-proline-valine-lysine-amino carbamoyl coumarin, to a final concentration of 10 μM. The rate of substrate hydrolysis is measured by monitoring the increase in fluorescence at an excitation wavelength of 380 nm and an emission wavelength of 450 nm that results from cleavage of the aniline bond in the substrate by the enzyme. The apparent inhibition constants for the compounds are determined from the enzyme progress curves (Kuzmie, P., K. C. Elrod, et al., Anal Biochem 2000, 286(1), 45-50) and are then used to calculate the inhibition constants for competitive inhibitors.

[2] = molecular target: T1, Cathepsin K (Homo sapiens, UniProt P43235); assay: Cathepsin K inhibition, fluorogenic peptide substrate kinetic assay; settings: Table III; Cathepsin K inhibition constant, pH5.5; read-out: Ki Cat. K
T1 sequence (P43235 115-329): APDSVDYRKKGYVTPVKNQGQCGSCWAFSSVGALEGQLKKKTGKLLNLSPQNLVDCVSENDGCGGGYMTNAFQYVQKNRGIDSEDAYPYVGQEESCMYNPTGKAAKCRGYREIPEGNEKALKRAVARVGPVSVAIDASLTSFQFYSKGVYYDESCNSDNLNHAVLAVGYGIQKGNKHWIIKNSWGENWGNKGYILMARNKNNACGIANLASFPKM
Description: (§1) The optimal substrate for cathepsin K, acetyl-lysine-histidine-proline-lysine-amino carbamoyl coumarin, was identified from screening a combinatorial library of fluorogenic peptide substrates (Harris, J. L., B. J. Backes, et al., Proc Natl Acad Sci U S A 2000, 97(14), 7754-9). Kinetic measurements are performed in a total reaction volume of 30 μl in 384-well microtiter plates. […] The reactions are initiated by adding the substrate, acetyl-lysine-histidine-proline-lysine-amino carbamoyl coumarin, to a final concentration of 40 μM. The rate of substrate hydrolysis is measured by monitoring the increase in fluorescence at an excitation wavelength of 380 nm and an emission wavelength of 450 nm that results from cleavage of the aniline bond in the substrate by the enzyme. The apparent inhibition constants for the compounds are determined from the enzyme progress curves (Kuzmic, P., K. C. Elrod, et al., Anal Biochem 2000, 286(1), 45-50) and are then used to calculate the inhibition constants for competitive inhibitors.

[3] = molecular target: Cathepsin L (Homo sapiens, UniProt P07711); assay: Cathepsin L inhibition, fluorogenic peptide substrate kinetic assay; settings: Table III; Cathepsin L inhibition constant, pH5.5; read-out: Ki Cat. L
Description: as §1, with “Kinetic” for “The optimal substrate for cathepsin K, acetyl-lysine-histidine-proline-lysine-amino carbamoyl coumarin, was identified from screening a combinatorial library of fluorogenic peptide substrates (Harris, J. L., B. J. Backes, et al., Proc Natl Acad Sci U S A 2000, 97(14), 7754-9). Kinetic”, “acetyl-histidine-lysine-phenylalanine-lysine-amino” for “acetyl-lysine-histidine-proline-lysine-amino”, “20” for “40”

[4] = molecular target: Cathepsin S (Homo sapiens, UniProt P25774); assay: Cathepsin S inhibition, fluorogenic peptide substrate kinetic assay; settings: Cathepsin S inhibition constant, pH5.5, read-out: Ki Cat. S
Outline: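 Ki values derive from apparent constants fitted to progress curves, corrected for competition with substrate via [S] and Km. Kinetics were monitored at 380 nm excitation/450 nm emission, after substrate addition (Ac-HPVK-ACC, 50 μM final) to start the reaction.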

Cathepsin S, sequence (P25774 115-331, species assumed): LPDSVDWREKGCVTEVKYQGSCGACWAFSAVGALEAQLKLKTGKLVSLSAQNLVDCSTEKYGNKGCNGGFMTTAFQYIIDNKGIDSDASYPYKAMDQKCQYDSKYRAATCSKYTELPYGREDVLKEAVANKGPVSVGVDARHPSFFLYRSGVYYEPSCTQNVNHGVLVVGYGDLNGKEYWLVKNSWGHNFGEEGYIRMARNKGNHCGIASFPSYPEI
Cathepsin L, sequence (P07711 114-333, species assumed): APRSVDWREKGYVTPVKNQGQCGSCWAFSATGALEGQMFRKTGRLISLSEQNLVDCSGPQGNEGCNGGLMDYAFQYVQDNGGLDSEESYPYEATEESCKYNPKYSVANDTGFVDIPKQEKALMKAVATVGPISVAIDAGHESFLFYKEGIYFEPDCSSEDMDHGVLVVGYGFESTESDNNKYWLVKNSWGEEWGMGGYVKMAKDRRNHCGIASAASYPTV

Row | Structure (SMILES) | Ki [1] [µM] | Ki [2] [µM] | Ki [3] [µM] | Ki ([4]; Table II) [µM] | Ki ([4]; Table III) [µM]
1 | COc1cccc(C(=O)N[C@@H](CC2CCCCC2)C(=O)N[C@@H](CN2CCOCC2)CN2CCc3cc(F)ccc32)c1 [Compound 151, N-{2-Cyclohexyl-1-(S)-[2-(5-fluoro-2,3-dihydro-indol-1-yl)-1-(S)-morpholin-4-ylmethyl-ethylcarbamoyl]-ethyl}-3-methoxy-benzamide] | > 10 | < 10 | < 0.1 | < 0.1 | < 0.1
2 | C[C@@H](CNc1cc(F)ccc1F)NC(=O)[C@H](CC1CCCCC1)NC(=O)c1ccc(-c2cccc(F)c2)o1 [Compound 91, 5-(3-Fluoro-phenyl)-furan-2-carboxylic acid {2-cyclohexyl-1-(S)-[2-(2,5-difluoro-phenylamino)-1-(S)-methyl-ethylcarbamoyl]-ethyl}-amide] | < 10 | < 10 | < 1 | < 0.1 | < 0.1
3 | COc1ccc(N2CCC[C@H](NC(=O)[C@H](CC(C)C)NC(=O)c3cccc(C)c3)C2)cc1 (single isomer, unassigned) [Compound 31] | > 10 | < 10 | < 1 | < 10 | < 10
4 | O=C(NC(CCC1CCCCC1)C(=O)NC(COCc1ccccc1)CN1CCc2cc(F)ccc21)c1cc2ccccc2[nH]1 (mixture of isomers) [Compound 41, 1H-Indole-2-carboxylic acid {(1S)-[2-benzyloxy-(1R)-(5-fluoro-2,3-dihydro-indol-1-ylmethyl)-ethylcarbamoyl]-3-cyclohexyl-propyl}-amide] | < 1 | > 10 | < 1 | < 0.1 | < 0.1
5 | CC(C(=O)N[C@@H](CC1CCCCC1)C(=O)NCCN1CCc2cc(F)ccc21)c1ccc(O)cc1 (stereo partly drawn) [Compound 101, N-{2-cyclohexyl-1-(S)-[2-(5-fluoro-2,3-dihydro-indol-1-yl)-ethylcarbamoyl]-ethyl}-2-(4-hydroxy-phenyl)-propionamide] | > 10 | > 10 | < 10 | < 0.1 | < 0.1
6 | Cc1ccccc1C(C)C(=O)N[C@@H](CC1CCCCC1)C(=O)NCCN1CCc2cc(F)ccc21 (stereo partly drawn) [Compound 61, N-{2-cyclohexyl-1-(S)-[2-(5-fluoro-2,3-dihydro-indol-1-yl)-ethylcarbamoyl]-ethyl}-2-o-tolyl-propionamide] | > 10 | > 10 | < 0.1 | < 0.1 | < 0.1

More lines, now with the values ahead:

Row | Ki [1] [µM] | Ki [2] [µM] | Ki [3] [µM] | Ki ([4]; Table II) [µM] | Ki ([4]; Table III) [µM] | Structure (SMILES)
7 | > 10 | > 10 | < 10 | < 0.1 | < 0.1 | COC(=O)c1ccc(COC[C@@H](CN2CCc3cc(F)ccc32)NC(=O)[C@H](CCC2CCCCC2)NC(=O)c2cccc(OC)c2)cc1 [Compound 171, 4-{2-(R)-[4-Cyclohexyl-2-(S)-(3-methoxy-benzoylamino)-butyrylamino]-3-(5-fluoro-2,3-dihydro-indol-1-yl)-propoxymethyl}-benzoic acid methyl ester]
8 | > 10 | > 10 | > 10 | < 0.1 | < 0.1 | Cn1nc(C(F)(F)F)cc1-c1ccc(S(=O)(=O)N[C@@H](CC2CCCCC2)C(=O)NCCN2CCc3cc(F)ccc32)s1 [Compound 231, (S)-3-Cyclohexyl-N-[2-(5-fluoro-2,3-dihydro-indol-1-yl)-ethyl]-2-[5-(2-methyl-5-trifluoromethyl-2H-pyrazol-3-yl)-thiophene-2-sulfonylamino]-propionamide]
9 | > 10 | < 10 | < 1 | < 0.1 | < 0.1 | Cc1cccc(C(=O)N[C@@H](CC2CCCC2)C(=O)NCCN2CCc3cc(F)ccc32)c1 [Compound 201, (S)-N-{2-Cyclopentyl-1-[2-(5-fluoro-2,3-dihydro-indol-1-yl)-ethylcarbamoyl]-ethyl}-3-methyl-benzamide]
10 | > 10 | > 10 | > 10 | < 1 | < 1 | Cc1noc(C)c1NC(=O)N[C@@H](CC1CCCCC1)C(=O)NCCN1CCc2cc(F)ccc21 [Compound 221]
